SMILES strings stand for the structures. Converted amounts (≈) assume the structure as drawn.

In DBAASP one finds MIC data, which are given here for 14 compounds.

Holding throughout (experiment): ≥ marks a high value that may be exact or a test limit, other limits are often not marked, values filed in µg/mL are converted to µM
Test [1] deals with Pseudomonas aeruginosa ATCC 9027.
Test [2] has as its system Staphylococcus aureus ATCC 6538.
The test system of test [3] is Bacillus subtilis.
Test [4] concerns Candida albicans.
In test [5] the test system is Escherichia coli.
Test [6] relates to Staphylococcus aureus.
Test [7] deals with Escherichia coli DH5alpha.
Test [8] concerns Pseudomonas aeruginosa ATCC 27853.
Test [9] has as its system Staphylococcus aureus ATCC 25923.
The test system of test [10] is Bacillus subtilis ATCC 6633.
The subject of test [11] is Candida albicans ATCC 90028.
In test [12] the test system is Staphylococcus aureus ATCC 43300.

On to `CC(C)C[C@H](NC(=O)[C@H](CCCCN)NC(=O)[C@H](CCCCN)NC(=O)[C@H](C)NC(=O)[C@H](CC(C)C)NC(=O)[C@H](CCCCN)NC(=O)[C@H](C)NC(=O)[C@H](CC(C)C)NC(=O)[C@H](CCCCN)NC(=O)[C@H](CCCCN)NC(=O)[C@H](CC(C)C)NC(=O)[C@H](CCCCN)NC(=O)[C@H](CCCCN)NC(=O)[C@H](C)NC(=O)[C@@H](N)Cc1ccccc1)C(N)=O` [FAKKLKKLAKLAKKL], for which the minimal inhibitory concentration (MIC) was found to be 2.89 µM (≈ 5 µg/mL) in [1] and 5.79 µM (≈ 9.99 µg/mL) in [2].

In the case of `CC[C@H](C)[C@@H]1NC(=O)[C@H](Cc2ccc(O)cc2)NC(=O)[C@@H](NC(=O)[C@H](CCCN=C(N)N)NC(=O)[C@H](CO)NC(=O)[C@@H](N)[C@@H](C)O)CSSC[C@@H](C(=O)N[C@@H](CO)C(=O)O)NC(=O)[C@H](C(C)C)NC(=O)[C@H](C(C)C)NC(=O)[C@H](CCCCN)NC(=O)[C@H](CCCN=C(N)N)NC(=O)[C@H](CCCN=C(N)N)NC(=O)[C@H](Cc2ccc(O)cc2)NC(=O)CNC1=O` [TSRCYIGYRRKVVCS], the minimal inhibitory concentration (MIC) in test [3] was 9.77 µM (≈ 17.5 µg/mL); in [4], 4.89 µM (≈ 8.74 µg/mL); in test [5], 9.77 µM (≈ 17.5 µg/mL); in [6], 19.5 µM (≈ 35 µg/mL).

In the case of `CC[C@H](C)[C@H](NC(=O)CNC(=O)[C@H](CCCCN)NC(=O)CNC(=O)[C@H](Cc1ccccc1)NC(=O)[C@H](C)NC(=O)[C@H](CC(C)C)NC(=O)[C@H](CCCCN)NC(=O)[C@H](C)NC(=O)[C@H](Cc1c[nH]c2ccccc12)NC(=O)[C@H](CC(C)C)NC(=O)[C@H](CCCCN)NC(=O)[C@H](C)NC(=O)[C@@H](N)Cc1ccccc1)C(=O)NCC(=O)N[C@@H](CCCCN)C(=O)N[C@H](C(=O)NCC(=O)N[C@@H](CCCCN)C(=O)N[C@@H](CCCCN)C(=O)N[C@@H](CC(C)C)C(=O)N[C@@H](CC(C)C)C(N)=O)C(C)C` [FAKLWAKLAFGKGIGKVGKKLL], the minimum inhibitory concentration (MIC) came out at 4.21 µM (≈ 10 µg/mL) in test [1] and 6.32 µM (≈ 15 µg/mL) in test [2].

As to `CC[C@H](C)[C@H](NC(=O)[C@H](Cc1ccccc1)NC(=O)[C@@H](NC(=O)[C@H](Cc1c[nH]c2ccccc12)NC(=O)[C@H](CCCN=C(N)N)NC(=O)[C@H](CCCCN)NC(=O)[C@H](CCCN=C(N)N)NC(=O)[C@H](CCCCN)NC(=O)[C@H](Cc1c[nH]c2ccccc12)NC(=O)[C@H](CC(C)C)NC(=O)[C@@H](NC(=O)[C@@H](N)Cc1ccc(O)cc1)C(C)C)[C@@H](C)CC)C(=O)O` [YVLWKRKRWIFI], the MIC in test [3] is 5 µM (≈ 8.54 µg/mL); in [7], at least 60 µM; in test [8], 150 µM (≈ 256 µg/mL); in [9], 40 µM (≈ 68.3 µg/mL).

In the case of `CC[C@H](C)[C@H](NC(=O)[C@H](CO)NC(=O)[C@H](C)NC(=O)[C@@H](NC(=O)[C@H](CCCCN)NC(=O)[C@@H](N)CCCCN)[C@@H](C)CC)C(=O)NCC(=O)N[C@@H](CCCCN)C(=O)N[C@@H](CCC(=O)O)C(=O)N[C@H](C(=O)N[C@@H](CC(C)C)C(=O)N[C@@H](CCCCN)C(=O)N[C@@H](C)C(=O)N[C@@H](CC(C)C)C(N)=O)C(C)C` [KKIASIGKEVLKAL], the MIC is at least 75 µM in test [3] and 100 µM (≈ 150 µg/mL) in test [5].

For the compound `CC(C)C[C@H](NC(=O)CNC(=O)[C@@H](NC(=O)[C@@H]1CCCN1C(=O)[C@H](CC(C)C)NC(=O)CNC(=O)[C@H](CC(N)=O)NC(=O)[C@H](CC(N)=O)NC(=O)[C@H](Cc1c[nH]c2ccccc12)NC(=O)[C@@H](NC(=O)[C@H](CCCN=C(N)N)NC(=O)[C@H](CS)NC(=O)[C@H](CCCN=C(N)N)NC(=O)[C@H](Cc1cnc[nH]1)NC(=O)[C@H](CCCCN)NC(=O)[C@H](CCCCN)NC(=O)[C@H](CCCN=C(N)N)NC(=O)[C@@H](N)CCCCN)C(C)C)[C@@H](C)O)C(=O)N[C@@H](Cc1ccc(O)cc1)C(=O)N[C@@H](CCCN=C(N)N)C(=O)N[C@@H](Cc1c[nH]c2ccccc12)C(=O)N[C@@H](CS)C(N)=O` [KRKKHRCRVWNNGLPTGLYRWC], the MIC in [2] turned out to be 8 µM (≈ 22.2 µg/mL).

For the compound `CC(C)C[C@H](NC(=O)[C@H](CC(C)C)NC(=O)[C@H](CCCCN)NC(=O)[C@H](C)NC(=O)[C@H](CC(C)C)NC(=O)[C@H](CCCCN)NC(=O)[C@H](CCCCN)NC(=O)[C@H](C)NC(=O)[C@H](CC(C)C)NC(=O)[C@H](CCCCN)NC(=O)[C@H](CCCCN)NC(=O)[C@H](C)NC(=O)[C@@H](N)Cc1ccccc1)C(N)=O` [FAKKLAKKLAKLL], the minimal inhibitory concentration (MIC) in [1] and in test [2] was 3.4 µM (≈ 5 µg/mL) each time.

For the compound `CC(C)C[C@H](NC(=O)[C@@H](NC(=O)[C@H](CCCCN)NC(=O)[C@H](CCCCN)NC(=O)[C@H](C)NC(=O)[C@H](CC(C)C)NC(=O)[C@H](CCCCN)NC(=O)[C@H](C)NC(=O)[C@H](CC(C)C)NC(=O)[C@H](CC(C)C)NC(=O)[C@H](CCCCN)NC(=O)[C@H](C)NC(=O)[C@@H](N)Cc1ccccc1)C(C)C)C(N)=O` [FAKLLAKLAKKVL], the minimal inhibitory concentration (MIC) in [1] is 69.3 µM (≈ 99.9 µg/mL); in [2] it was 3.47 µM (≈ 5 µg/mL).

Turning to `CC[C@H](C)[C@H](NC(=O)[C@H](CC(C)C)NC(=O)[C@H](C)NC(=O)[C@@H]1CCCN1C(=O)[C@H](CC(C)C)NC(=O)CN)C(=O)N[C@@H](CO)C(=O)N[C@@H](CC(C)C)C(=O)N[C@H](C(=O)N[C@@H](CCCCN)C(=O)N[C@@H](CCCN=C(N)N)C(=O)N[C@@H](CCCCN)C(=O)N[C@@H](CCCN=C(N)N)C(=O)N[C@@H](CCC(N)=O)C(=O)N[C@@H](CCC(N)=O)C(N)=O)[C@@H](C)CC` [GLPALISLIKRKRQQ], the MIC in [3] turned out to be 5.81 µM (≈ 9.99 µg/mL); in test [5], 93.5 µM (≈ 161 µg/mL); in [6], 7.84 µM (≈ 13.5 µg/mL).

`CC[C@H](C)[C@H](NC(=O)[C@H](CC(C)C)NC(=O)[C@H](CC(C)C)NC(=O)[C@H](CC(=O)O)NC(=O)[C@H](CCCCN)NC(=O)[C@@H](NC(=O)[C@H](C)NC(=O)CNC(=O)[C@H](CC(C)C)NC(=O)[C@@H](NC(=O)CN)C(C)C)C(C)C)C(=O)NCC(=O)N[C@@H](C)C(=O)NCC(=O)N[C@@H](CCCCN)C(=O)N[C@@H](CO)C(=O)N[C@@H](C)C(=O)N[C@@H](C)C(=O)N[C@@H](CCC(N)=O)C(=O)N[C@@H](CO)C(=O)N[C@H](C(=O)N[C@@H](CC(C)C)C(=O)N[C@@H](CCCCN)C(=O)N[C@H](C(=O)N[C@@H](CC(C)C)C(=O)N[C@@H](CO)C(=O)N[C@H]1CSSC[C@@H](C(=O)O)NC(=O)[C@H](CC(=O)O)NC(=O)[C@H](CC(N)=O)NC(=O)[C@H](CO)NC(=O)[C@H](CC(C)C)NC(=O)[C@H](CCCCN)NC1=O)[C@@H](C)O)C(C)C` [GVLGAVKDLLIGAGKSAAQSVLKTLSCKLSNDC]: the MIC in test [3] is 5.04 µM (≈ 16.4 µg/mL); in test [4], 0.629 µM (≈ 2.05 µg/mL); in test [5] it was 2.52 µM (≈ 8.21 µg/mL); in test [6], 1.26 µM (≈ 4.11 µg/mL).

For `CC[C@H](C)[C@H](NC(=O)CNC(=O)[C@H](CO)NC(=O)[C@H](CC(C)C)NC(=O)[C@H](CC(C)C)NC(=O)CN)C(=O)N[C@@H](CC(C)C)C(=O)NCC(=O)N[C@@H](C)C(=O)NCC(=O)N[C@@H](CCCCN)C(=O)N[C@@H](CCC(N)=O)C(=O)N[C@@H](CCCCN)C(=O)N[C@H](C(=O)N[C@H]1CSSC[C@@H](C(=O)O)NC(=O)[C@H](CC(C)C)NC(=O)CNC(=O)[C@H](CO)NC(=O)[C@H](CC(C)C)NC(=O)CNC1=O)C(C)C` [GLLSGILGAGKQKVCGLSGLC], the MIC in [3] was determined as 19 µM (≈ 37.5 µg/mL); in [4] it was 2.37 µM (≈ 4.68 µg/mL); in test [5] it was 4.75 µM (≈ 9.36 µg/mL); in test [6], 9.5 µM (≈ 18.7 µg/mL).

As to `CC(C)C[C@H](NC(=O)[C@H](CCCCN)NC(=O)[C@H](C)NC(=O)[C@H](CC(C)C)NC(=O)[C@H](CC(C)C)NC(=O)[C@H](CCCCN)NC(=O)[C@H](C)NC(=O)[C@@H](N)Cc1ccccc1)C(=O)N[C@@H](C)C(=O)N[C@@H](CCCCN)C(N)=O` [FAKLLAKLAK], the MIC was 181 µM (≈ 200 µg/mL) in test [1] and 45.4 µM (≈ 50 µg/mL) in [2].

Turning to `CC(C)C[C@H](NC(=O)[C@H](C)NC(=O)[C@H](CCCCN)NC(=O)[C@H](CCCCN)NC(=O)[C@H](CC(C)C)NC(=O)[C@H](C)NC(=O)[C@H](CCCCN)NC(=O)[C@H](CCCCN)NC(=O)[C@H](CC(C)C)NC(=O)[C@H](CCCCN)NC(=O)[C@H](CCCCN)NC(=O)[C@H](CC(C)C)NC(=O)[C@H](C)NC(=O)[C@H](CCCCN)NC(=O)[C@H](CCCCN)NC(=O)[C@H](Cc1ccccc1)NC(=O)[C@H](CC(C)C)NC(=O)[C@H](CCCCN)NC(=O)[C@H](Cc1c[nH]c2ccccc12)NC(=O)[C@@H](N)CCCCN)C(N)=O` [KWKLFKKALKKLKKALKKAL], the minimal inhibitory concentration (MIC) in [1] and in test [2] was 4.15 µM (≈ 10 µg/mL) in each case.

`CC[C@H](C)[C@@H]1NC(=O)[C@H](C)NC(=O)[C@@H](NC(=O)[C@@H](NC(=O)[C@@H](NC(=O)[C@H](C)NC(=O)[C@@H]2CCCN2C(=O)CNC(=O)[C@@H](NC(=O)[C@H](CCCCN)NC(=O)[C@@H](NC(=O)[C@@H](NC(=O)[C@H](CC(C)C)NC(=O)[C@H](CCCN=C(N)N)NC(=O)[C@H](CC(C)C)NC(=O)[C@@H](NC(=O)CNC(=O)[C@@H]2CCCN2C(=O)[C@H](CC(C)C)NC(=O)[C@@H](N)Cc2ccccc2)C(C)C)C(C)C)[C@@H](C)O)C(C)C)C(C)C)C(C)C)CSSC[C@@H](C(=O)O)NC(=O)[C@H](CC(N)=O)NC(=O)[C@H](CCCN=C(N)N)NC(=O)[C@H]([C@@H](C)O)NC1=O` [FLPGVLRLVTKVGPAVVCAITRNC]: the MIC was 6.3 µM (≈ 15.9 µg/mL) in [10], at least 50 µM in test [11], 3.1 µM (≈ 7.83 µg/mL) in [12] and 3.1 µM (≈ 7.83 µg/mL) in [2].
